# According to patent publication US10758534B2 (Vertex Pharmaceuticals Incorporated, priority 2014, dated 2020):
# Biological target: T1, F508del (Homo sapiens, UniProt P13569, DEL508-508)
# T1 construct: expressed in transfected cells
# Experiment: Protocol 1: membrane potential optical assay (FLIPR III, voltage sensing dye), identification of potentiator compounds
# Type: cell-based
# Details: Table 3, compounds of Table 1
# In short: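 NIH 3T3 fibroblasts stably expressing F508del were cultured at 27° C for 24 hrs for temperature correction, then treated with compounds or DMSO and loaded with a voltage-sensing redistribution dye. Forskolin added with a Cl⁻ gradient activated the channel; membrane-potential fluorescence on FLIPR III reported increased gating.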
# T1 sequence (P13569 with tags, fused parts or gaps DEL508-508): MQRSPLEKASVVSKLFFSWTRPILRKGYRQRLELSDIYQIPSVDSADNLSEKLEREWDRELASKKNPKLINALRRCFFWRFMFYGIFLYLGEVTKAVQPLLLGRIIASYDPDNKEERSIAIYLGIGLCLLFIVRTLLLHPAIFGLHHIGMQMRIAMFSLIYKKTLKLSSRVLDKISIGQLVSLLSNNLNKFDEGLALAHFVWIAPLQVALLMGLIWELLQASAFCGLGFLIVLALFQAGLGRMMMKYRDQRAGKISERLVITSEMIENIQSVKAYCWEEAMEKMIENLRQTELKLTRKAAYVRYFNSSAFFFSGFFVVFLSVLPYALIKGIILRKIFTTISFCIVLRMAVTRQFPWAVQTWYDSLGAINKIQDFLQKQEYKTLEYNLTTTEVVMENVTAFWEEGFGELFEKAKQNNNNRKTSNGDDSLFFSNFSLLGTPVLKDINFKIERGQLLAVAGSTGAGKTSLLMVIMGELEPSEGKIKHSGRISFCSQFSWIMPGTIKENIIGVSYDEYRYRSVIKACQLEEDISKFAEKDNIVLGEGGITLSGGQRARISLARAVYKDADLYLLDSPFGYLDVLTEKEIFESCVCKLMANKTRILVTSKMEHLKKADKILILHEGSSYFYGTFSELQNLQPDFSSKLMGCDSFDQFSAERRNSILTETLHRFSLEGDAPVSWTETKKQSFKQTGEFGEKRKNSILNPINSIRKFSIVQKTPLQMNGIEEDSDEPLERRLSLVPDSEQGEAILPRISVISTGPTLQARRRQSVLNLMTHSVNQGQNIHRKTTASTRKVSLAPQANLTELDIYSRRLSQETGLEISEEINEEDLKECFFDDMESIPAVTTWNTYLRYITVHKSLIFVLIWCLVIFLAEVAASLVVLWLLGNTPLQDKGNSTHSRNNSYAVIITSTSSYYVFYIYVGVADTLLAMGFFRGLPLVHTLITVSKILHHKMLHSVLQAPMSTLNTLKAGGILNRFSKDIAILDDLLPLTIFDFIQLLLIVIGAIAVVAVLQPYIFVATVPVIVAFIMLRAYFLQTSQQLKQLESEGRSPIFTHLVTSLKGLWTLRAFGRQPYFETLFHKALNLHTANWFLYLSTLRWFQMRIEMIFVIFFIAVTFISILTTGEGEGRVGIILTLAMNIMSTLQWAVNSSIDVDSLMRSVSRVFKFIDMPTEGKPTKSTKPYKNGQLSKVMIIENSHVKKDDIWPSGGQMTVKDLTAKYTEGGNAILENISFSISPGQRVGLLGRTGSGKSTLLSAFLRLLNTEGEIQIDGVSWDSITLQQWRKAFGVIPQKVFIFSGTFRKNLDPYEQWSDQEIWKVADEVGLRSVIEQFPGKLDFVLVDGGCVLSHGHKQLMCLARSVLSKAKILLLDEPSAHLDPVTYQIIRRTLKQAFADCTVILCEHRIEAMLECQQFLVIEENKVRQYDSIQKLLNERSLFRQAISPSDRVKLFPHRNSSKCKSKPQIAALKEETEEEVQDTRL
row,EC30,Compound
1,++ (“++” means between 3 uM and 10 uM),"CCOc1ccc(-c2ccc(C(=O)NS(=O)(=O)c3ccc[nH]c3=O)c(Oc3c(C)cc(C)cc3C)n2)cc1 [Compound 1179, 6-(4-ethoxyphenyl)-N-[(2-oxo-1H-pyridin-3-yl)sulfonyl]-2-(2,4,6-trimethylphenoxy)pyridine-3-carboxamide]"
2,+++ (“+++” means <3 uM),"CC1CN(c2nc(-c3ccc(OCC(C)(C)C)nc3)ccc2C(=O)NS(=O)(=O)c2cccc(N)n2)C(C)(C)C1 (centres unmarked) [Compound 1181, N-[(6-amino-2-pyridyl)sulfonyl]-6-[6-(2,2-dimethylpropoxy)-3-pyridyl]-2-(2,2,4-trimethylpyrrolidin-1-yl)pyridine-3-carboxamide]"
3,++ (“++” means between 3 uM and 10 uM),"CC(C)Oc1ccc(-c2ccc(C(=O)NS(=O)(=O)c3cccc(N)n3)c(N3CCCCC3C)n2)cn1 (centres unmarked) [Compound 1182, N-[(6-amino-2-pyridyl)sulfonyl]-6-(6-isopropoxy-3-pyridyl)-2-(2-methyl-1-piperidyl)pyridine-3-carboxamide]"
4,+ (“+” means greater than 10 uM),"Cc1cc(C)c(Oc2nc(-c3ccc(CO)cc3)ccc2C(=O)NS(=O)(=O)c2cccc(N)n2)c(C)c1 [Compound 1183, N-[(6-amino-2-pyridyl)sulfonyl]-6-[4-(hydroxymethyl)phenyl]-2-(2,4,6-trimethylphenoxy)pyridine-3-carboxamide]"
5,+++ (“+++” means <3 uM),"CCOc1ccc(-c2ccc(C(=O)NS(=O)(=O)c3cccc(N)n3)c(Oc3c(C)cc(C)cc3C)n2)cn1 [Compound 1185, N-[(6-amino-2-pyridyl)sulfonyl]-6-(6-ethoxy-3-pyridyl)-2-(2,4,6-trimethylphenoxy)pyridine-3-carboxamide]"
6,+++ (“+++” means <3 uM),"Cc1cc(C)c(C(C)N2Cc3ccccc3C2C(=O)NS(=O)(=O)c2cccc(N)n2)c(C)c1 (centres unmarked) [Compound 1186, N-[(6-amino-2-pyridyl)sulfonyl]-2-[1-(2,4,6-trimethylphenyl)ethyl]isoindoline-1-carboxamide]"
7,+++ (“+++” means <3 uM),"Cc1cc(C)c(Oc2nc(-c3cccc(OC(C)C)c3)ccc2C(=O)NS(=O)(=O)c2ccc[nH]c2=O)c(C)c1 [Compound 1188, 6-(3-isopropoxyphenyl)-N-[(2-oxo-1H-pyridin-3-yl)sulfonyl]-2-(2,4,6-trimethylphenoxy)pyridine-3-carboxamide]"
8,+++ (“+++” means <3 uM),"CC1(C)CCCc2cc(C(=O)NS(=O)(=O)c3ccc(N)cc3)c(-c3ccccc3)nc21 [Compound 1190, N-(4-aminophenyl)sulfonyl-8,8-dimethyl-2-phenyl-6,7-dihydro-5H-quinoline-3-carboxamide]"
9,++ (“++” means between 3 uM and 10 uM),"COc1ncc(-c2ccc(C(=O)NS(=O)(=O)c3nccnc3N)c(N3CCC(C)CC3)n2)cc1C [Compound 1191, N-(3-aminopyrazin-2-yl)sulfonyl-6-(6-methoxy-5-methyl-3-pyridyl)-2-(4-methyl-1-piperidyl)pyridine-3-carboxamide]"
10,+ (“+” means greater than 10 uM),"CC1CCN(c2nc3c(cc2C(=O)NS(=O)(=O)c2ccc[nH]c2=O)CCCC3(C)C)CC1 [Compound 1195, 8,8-dimethyl-2-(4-methyl-1-piperidyl)-N-[(2-oxo-1H-pyridin-3-yl)sulfonyl]-6,7-dihydro-5H-quinoline-3-carboxamide]"
11,++ (“++” means between 3 uM and 10 uM),"Cc1ccc(-c2ccc(C(=O)NS(=O)(=O)c3cccc(N)n3)c(NCC3(C)CCOCC3)n2)cc1 [Compound 1196, N-[(6-amino-2-pyridyl)sulfonyl]-2-[(4-methyltetrahydropyran-4-yl)methylamino]-6-(p-tolyl)pyridine-3-carboxamide]"
12,+++ (“+++” means <3 uM),"CC(C)Oc1ccc(-c2ccc(C(=O)NS(=O)(=O)c3cccc(N)n3)c(N3[C@H](C)CC[C@H]3C)n2)cn1 [Compound 1198, N-[(6-amino-2-pyridyl)sulfonyl]-2-[(2R,5R)-2,5-dimethylpyrrolidin-1-yl]-6-(6-isopropoxy-3-pyridyl)pyridine-3-carboxamide]"
13,++ (“++” means between 3 uM and 10 uM),"Cc1cc(C)c(Oc2nc3c(cc2C(=O)NS(=O)(=O)c2ccc[nH]c2=O)CCC(C)(C)C3)c(C)c1 [Compound 1199, 7,7-dimethyl-N-[(2-oxo-1H-pyridin-3-yl)sulfonyl]-2-(2,4,6-trimethylphenoxy)-6,8-dihydro-5H-quinoline-3-carboxamide]"
14,++ (“++” means between 3 uM and 10 uM),"CCOC1CCN(c2nc(C(C)(C)C)ccc2C(=O)NS(=O)(=O)c2cccc(N)n2)CC1 [Compound 1200, N-[(6-amino-2-pyridyl)sulfonyl]-6-tert-butyl-2-(4-ethoxy-1-piperidyl)pyridine-3-carboxamide]"
15,+++ (“+++” means <3 uM),"CCCOc1ccc(-c2ccc(C(=O)NS(=O)(=O)c3ccc[nH]c3=O)c(Oc3c(C)cc(C)cc3C)n2)cc1 [Compound 1202, N-[(2-oxo-1H-pyridin-3-yl)sulfonyl]-6-(4-propoxyphenyl)-2-(2,4,6-trimethylphenoxy)pyridine-3-carboxamide]"
16,+ (“+” means greater than 10 uM),"CCOc1ccc(-c2ccc(C(=O)NS(=O)(=O)c3nccnc3N)c(NCC3(C)CCOCC3)n2)cc1 [Compound 1203, N-(3-aminopyrazin-2-yl)sulfonyl-6-(4-ethoxyphenyl)-2-[(4-methyltetrahydropyran-4-yl)methylamino]pyridine-3-carboxamide]"
17,+ (“+” means greater than 10 uM),"Cc1cc(C)c(Oc2nc(-c3ccc(O)cc3C)ccc2C(=O)NS(=O)(=O)c2cccc(N)n2)c(C)c1 [Compound 1204, N-[(6-amino-2-pyridyl)sulfonyl]-6-(4-hydroxy-2-methyl-phenyl)-2-(2,4,6-trimethylphenoxy)pyridine-3-carboxamide]"
18,++ (“++” means between 3 uM and 10 uM),"CC(C)Oc1ccc(-c2ccc(C(=O)NS(=O)(=O)c3cccc(N)n3)c(N3CCC(C(C)(C)C)C3)n2)cn1 (centres unmarked) [Compound 1206, N-[(6-amino-2-pyridyl)sulfonyl]-2-(3-tert-butylpyrrolidin-1-yl)-6-(6-isopropoxy-3-pyridyl)pyridine-3-carboxamide]"
19,+++ (“+++” means <3 uM),"Cc1cc(C)c(Oc2nc(-c3ccc4c(c3)OCO4)ccc2C(=O)NS(=O)(=O)c2cccc(N)n2)c(C)c1 [Compound 1207, N-[(6-amino-2-pyridyl)sulfonyl]-6-(1,3-benzodioxol-5-yl)-2-(2,4,6-trimethylphenoxy)pyridine-3-carboxamide]"

row,Compound,EC30
1,"CC(C)COc1cc(F)cc(-c2ccc(C(=O)NS(=O)(=O)c3cccc(N)n3)c(N3C[C@@H]4CC[C@H]3C4)n2)c1 [Compound 1180, N-[(6-amino-2-pyridyl)sulfonyl]-2-[(1R,4S)-3-azabicyclo[2.2.1]heptan-3-yl]-6-(3-fluoro-5-isobutoxy-phenyl)pyridine-3-carboxamide]",+++ (“+++” means <3 uM)
2,"CC(C)COc1cc(F)cc(-c2ccc(C(=O)NS(=O)(=O)c3cccc(N)c3)c(N3CC(C)CC3(C)C)n2)c1 (centres unmarked) [Compound 1184, N-(3-aminophenyl)sulfonyl-6-(3-fluoro-5-isobutoxy-phenyl)-2-(2,2,4-trimethylpyrrolidin-1-yl)pyridine-3-carboxamide]",+++ (“+++” means <3 uM)
3,"CCCCOc1ccc(-c2ccc(C(=O)NS(=O)(=O)c3ccc[nH]c3=O)c(Oc3c(C)cc(C)cc3C)n2)cc1F [Compound 1187, 6-(4-butoxy-3-fluoro-phenyl)-N-[(2-oxo-1H-pyridin-3-yl)sulfonyl]-2-(2,4,6-trimethylphenoxy)pyridine-3-carboxamide]",+++ (“+++” means <3 uM)
4,"CC(C)COc1cc(F)cc(-c2ccc(C(=O)NS(=O)(=O)c3cccc(N)n3)c(N3CCC(=O)C3(C)C)n2)c1 [Compound 1189, N-[(6-amino-2-pyridyl)sulfonyl]-2-(2,2-dimethyl-3-oxo-pyrrolidin-1-yl)-6-(3-fluoro-5-isobutoxy-phenyl)pyridine-3-carboxamide]",+++ (“+++” means <3 uM)
5,"CC(C)COc1cc(-c2ccc(C(=O)NS(=O)(=O)c3cccc(N)n3)c(N3CC(C)CC3(C)C)n2)ccn1 (centres unmarked) [Compound 1192, N-[(6-amino-2-pyridyl)sulfonyl]-6-(2-isobutoxy-4-pyridyl)-2-(2,2,4-trimethylpyrrolidin-1-yl)pyridine-3-carboxamide]",+++ (“+++” means <3 uM)
6,"CC(C)COc1cc(F)cc(-c2ccc(C(=O)NS(=O)(=O)c3cccc(N)n3)c(N3CCC[C@H](C)C3)n2)c1 [Compound 1193, N-[(6-amino-2-pyridyl)sulfonyl]-6-(3-fluoro-5-isobutoxy-phenyl)-2-[(3S)-3-methyl-1-piperidyl]pyridine-3-carboxamide]",+++ (“+++” means <3 uM)
7,"CC(C)COc1ccc(F)c(-c2ccc(C(=O)NS(=O)(=O)c3cccc(N)n3)c(N3CC(C)CC3(C)C)n2)c1 (centres unmarked) [Compound 1194, N-[(6-amino-2-pyridyl)sulfonyl]-6-(2-fluoro-5-isobutoxy-phenyl)-2-(2,2,4-trimethylpyrrolidin-1-yl)pyridine-3-carboxamide]",+++ (“+++” means <3 uM)
8,"CC(C)COc1cc(-c2ccc(C(=O)NS(=O)(=O)c3cccc(N)n3)c(N3[C@H](C)CC[C@@H]3C)n2)ccc1Cl [Compound 1197, N-[(6-amino-2-pyridyl)sulfonyl]-6-(4-chloro-3-isobutoxy-phenyl)-2-[(2S,5R)-2,5-dimethylpyrrolidin-1-yl]pyridine-3-carboxamide]",+++ (“+++” means <3 uM)
9,"Cc1cc(C)c(Oc2nc(-c3cc(OCC(C)C)ccc3Cl)ccc2C(=O)NS(=O)(=O)c2ccc[nH]c2=O)c(C)c1 [Compound 1201, 6-(2-chloro-5-isobutoxy-phenyl)-N-[(2-oxo-1H-pyridin-3-yl)sulfonyl]-2-(2,4,6-trimethylphenoxy)pyridine-3-carboxamide]",+++ (“+++” means <3 uM)
10,"CC(C)COc1cc(F)cc(-c2ccc(C(=O)NS(=O)(=O)c3cccc(N)n3)c(N(C)C(C)c3cccc(Cl)c3)n2)c1 (centres unmarked) [Compound 1205, N-[(6-amino-2-pyridyl)sulfonyl]-2-[1-(3-chlorophenyl)ethyl-methyl-amino]-6-(3-fluoro-5-isobutoxy-phenyl)pyridine-3-carboxamide]",+++ (“+++” means <3 uM)
